# Measured values from EP4663204A1, “COMPOUNDS USEFUL FOR THE MODULATION OF THE ACTIVITY OF STING” (Sulis Therapeutics ApS, priority 2024, dated 2025).
# Where “and” joins values, the source holds several entries; their conditions need not be identical. Identical values can stand only once. Entries after “also recorded” stand apart in the source; their conditions may differ.
# Tests used:
# Type in all cases: cell-based
# Design in all cases: To assess STING degradation and recovery in human foreskin fibroblasts HFF-1 cells; host or cells: HFF-1 human foreskin fibroblasts
# [1] = target: T1, STING (Homo sapiens, UniProt Q86WV6); assay: Western Blot of diABZI-induced STING activation in primary human skin fibroblasts (Figure 9); details: 5 µM; for LC3B lipidation / P-TBK1: 0.3 µM diABZI; for P-TBK1 / P-STING: versus diABZI c3 only; for P-STING: before (-2h, -1h), simultaneously with, or 15 minutes after 0.3 µM diABZI
# Procedure: (§1) To assess whether S1 STING ligands inhibit STING activation, primary human skin fibroblasts (Figure 9) or HFF-1 cells (Figure 10) were treated with various compounds which comprise only an S1 ligand domain and a Linker domain before undergoing Western Blot analysis as described below.
# (§2) Cell culture methods as described above for primary human skin fibroblast and HFF-1 cells were used in the current experiments. Methods as described above for H596, H1650 and HaCat cells were applied for cell lysis and western blotting.
# Cells were incubated with A9 or A11 for 1 or 2 hours before addition of diABZI c3, treated with test compound and diABZI c3 simultaneously, or treated with A9 or A11 after 15 minutes incubation with diABZI c3. As a control, cells were also treated with diABZI c3 alone.
# [2] = target: T1, STING; assay: Inhibition of STING-agonist-induced IFN-β and CXCL10 release (Figure 11); details: for IFN media concentration: Figure 11A; for secretion of Functional Type I IFN / secretion of CXCL10: human skin fibroblasts, 5 µM, 0.3 µM diABZI; for secretion of Functional Type I IFN: Figure 11 (A); for secretion of CXCL10: Figure 11 (B); for CXCL10 media concentration: Figure 11B
# Procedure: HFF-1 cells were assessed for inhibition of STING-agonist-induced IFN-β and CXCL10 release in cells treated with Compounds A9 and A11.
# HFF-1 cells were cultured as described in Example 7 above except that cells were seeded in a 24-well plate at 30,000 cells/well. […]
# [3] = target: T1, STING; assay: Western Blot of diABZI-induced STING activation in HFF-1 cells (Figure 10A); details: 5 µM for 15 min, then 300 nM diABZI for 2 h or 5 h, versus diABZI c3 alone
# Procedure: as §1, §2
# In Figure 10A, HFF-1 cells were treated with 5 µM of compounds A11, A25, A26, or A30, or 0.5 µM STING antagonist control for 15 min followed prior to addition of 300 nM diABZI and incubation for 2 h or 5 h. The cells were lysed and analysed on WB. As additional controls, cells were left untreated (UT), treated with Lipofectamine (Lipo control) or with compounds A26 or A30 as single agent. […]
# [4] = target: T1, STING; assay: Western Blot of STING agonist activity of compounds as single agent in HFF-1 cells; details: compound as single agent, no activation
# Procedure: S1 is a STING ligand. […] Any standard method known in the art may be used to determine STING agonist activity. For example, STING agonist activity (or lack thereof) can be measured as described in Examples 11 and/or Example 12. For example, following the method described in Example 11, cells may be incubated with a compound comprising a S1 STING ligand. The cells may be lysed and Western Blotting performed. Western blots may be probed for phospho-STING and/or phospho-TBK1. Cells incubated with STING ligands which are not agonists will not result in detectable phospho-STING or phospho-TBK1 using the methods outlined above and in Examples 11. In another example, following the method described in Example 12, human skin fibroblasts may be pretreated for 2hours with a serial dilution of a test compounds, for example a compound comprising an S1 ligand, prior to stimulation with a STING agonist (e.g. 300 nM GSK STING agonist). Supernatants may then be harvested after STING agonist stimulation (e.g. after 20 h stimulation). IFN-a/b may be measured in the supernatants using HEK-Blue IFN-α/β bioassay (Invivogen) to determine a half-maximal inhibitory concentration of a test compound.
# as §1, §2
# In Figure 10A, HFF-1 cells were treated with 5 µM of compounds A11, A25, A26, or A30, or 0.5 µM STING antagonist control for 15 min followed prior to addition of 300 nM diABZI and incubation for 2 h or 5 h. The cells were lysed and analysed on WB. As additional controls, cells were left untreated (UT), treated with Lipofectamine (Lipo control) or with compounds A26 or A30 as single agent. The WB membrane was probed for p-STING, STING, p-IRF3, p-TBK1, and Vinculin.
# (§3) In Figure 10B, similar experiments were performed as for Figure 10A, except that cells were activated with 8 µg/mL cGAMP instead of diABZI c3. In addition, the controls used in this set of experiments was A11, A25, A26 and A30 as a single agent with no cGAMP activation.
# [5] = target: T1, STING; assay: Western Blot of cGAMP-induced STING activation in HFF-1 cells (Figure 10B); details: 5 µM for 15 min, then 8 µg/mL cGAMP for 2 h or 5 h, versus cGAMP alone
# Procedure: as §1, §2, §3
# [6] = 5 µM compound 1 to 2 hours before, simultaneously with, or 15 minutes after 0.3 µM diABZI c3
# T1 sequence (Q86WV6 whole entry, the tested form may be a part): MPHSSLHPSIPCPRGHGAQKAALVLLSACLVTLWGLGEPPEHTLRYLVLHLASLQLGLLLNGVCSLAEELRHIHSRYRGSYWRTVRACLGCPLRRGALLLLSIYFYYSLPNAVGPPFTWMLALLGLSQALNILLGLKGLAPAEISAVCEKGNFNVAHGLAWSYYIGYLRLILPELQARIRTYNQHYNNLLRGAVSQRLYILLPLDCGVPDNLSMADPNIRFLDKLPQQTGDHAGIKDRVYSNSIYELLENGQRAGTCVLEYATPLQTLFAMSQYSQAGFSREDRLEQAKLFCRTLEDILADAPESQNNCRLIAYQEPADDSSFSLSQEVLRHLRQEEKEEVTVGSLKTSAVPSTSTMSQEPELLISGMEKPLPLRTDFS
SMILES,P-TBK1 [1],"IFN media concentration [2, 6]",secretion of Functional Type I IFN [2],secretion of CXCL10 [2],CXCL10 media concentration ([2]; cells treated with diABZI c3 alone),IFN media concentration ([2]; cells treated with only diABZI c3),"CXCL10 media concentration ([2]; 5 µM compound before, simultaneously with, or after diABZI c3, filled bars) [pg/mL]",LC3B lipidation [1],P-STING [1],"STING, TBK1 and IRF3 phosphorylation [3]","phosphorylation of STING, IRF1 or TBK1 [4]","STING, TBK1 and IRF1 phosphorylation [5]"
"CCn1nc(C)cc1C(=O)N=c1n(C)c2cc(C(N)=O)ccc2n1CCC(CCn1c(=NC(=O)c2cc(C)nn2CC)n(C)c2cc(C(N)=O)ccc21)OCC(=O)N1CCC[C@H]1C(=O)N1CCc2cc(OC)ccc2C1 (stereo partly drawn) [A26, 1-[3-(2-{(S)-2-[(6-Methoxy-1,2,3,4-tetrahydro-2-isoquinolyl)carbonyl]-1-pyrrolidinyl}-2-oxoethoxy)-5-{5-carbamoyl-2-[(1-ethyl-3-methyl-5-pyrazolyl)carbonylimino]-3-methyl-2,3-dihydro-1H-1,3-benzimidazol-1-yl}pentyl]-2-[(1-ethyl-3-methyl-5-pyrazolyl)carbonylimino]-3-methyl-2,3-dihydro-1H-1,3-benzimidazole-5-carboxamide]",,,,,,,,,,"lower; also recorded: inhibited STING, IRF3 and TBK1 phosphorylation and activation","do not induce STING, IRF3 or TBK1 phosphorylation and activation alone","lower; also recorded: inhibited STING, IRF3 and TBK1 phosphorylation and activation"
"CCn1nc(C)cc1C(=O)Nc1nc2cc(C(N)=O)cc(OC)c2n1C/C=C/Cn1c(NC(=O)c2cc(C)nn2CC)nc2cc(C(N)=O)cc(OCCCN3CCOCC3)c21 [diABZI c3, reference compound]",,,,,~ 60 pg/mL,~ 200 U/mL and ~ 100 U/mL,,,,,,
"CCn1nc(C)cc1C(=O)N=c1n(C)c2cc(C(N)=O)ccc2n1CCC(CCn1c(=NC(=O)c2cc(C)nn2CC)n(C)c2cc(C(N)=O)ccc21)OCC(=O)N1CCOC[C@@H]1c1ccccc1 (stereo partly drawn) [A30, 1-(3-{2-[(S)-3-Phenyl-4-morpholinyl]-2-oxoethoxy}-5-{5-carbamoyl-2-[(1-ethyl-3-methyl-5-pyrazolyl)carbonylimino]-3-methyl-2,3-dihydro-1H-1,3-benzimidazol-1-yl}pentyl)-2-[(1-ethyl-3-methyl-5-pyrazolyl)carbonylimino]-3-methyl-2,3-dihydro-1H-1,3-benzimidazole-5-carboxamide]",,,,,,,,,,"lower; also recorded: inhibited STING, IRF3 and TBK1 phosphorylation and activation","do not induce STING, IRF3 or TBK1 phosphorylation and activation alone","lower; also recorded: inhibited STING, IRF3 and TBK1 phosphorylation and activation"
"CCn1nc(C)cc1C(=O)N=c1n(C)c2cc(C(N)=O)ccc2n1CCC(CCn1c(=NC(=O)c2cc(C)nn2CC)n(C)c2cc(C(N)=O)ccc21)OCC(=O)N1CCC[C@H]1c1ccccc1 (stereo partly drawn) [A25, 1-(3-{2-[(S)-2-Phenyl-1-pyrrolidinyl]-2-oxoethoxy}-5-{5-carbamoyl-2-[(1-ethyl-3-methyl-5-pyrazolyl)carbonylimino]-3-methyl-2,3-dihydro-1H-1,3-benzimidazol-1-yl}pentyl)-2-[(1-ethyl-3-methyl-5-pyrazolyl)carbonylimino]-3-methyl-2,3-dihydro-1H-1,3-benzimidazole-5-carboxamide]",,,,,,,,,,lower,"do not induce STING, IRF3 or TBK1 phosphorylation and activation alone",lower

# Continued, in another order:
P-TBK1 [1],"IFN media concentration [2, 6]",secretion of Functional Type I IFN [2],secretion of CXCL10 [2],CXCL10 media concentration ([2]; cells treated with diABZI c3 alone),IFN media concentration ([2]; cells treated with only diABZI c3),"CXCL10 media concentration ([2]; 5 µM compound before, simultaneously with, or after diABZI c3, filled bars) [pg/mL]",SMILES,LC3B lipidation [1],P-STING [1],"STING, TBK1 and IRF3 phosphorylation [3]","phosphorylation of STING, IRF1 or TBK1 [4]","STING, TBK1 and IRF1 phosphorylation [5]"
reduced P-TBK1 intensity,~ 100 U/mL,inhibits secretion,inhibits secretion,,,,"CCn1nc(C)cc1C(=O)N=c1n(C)c2cc(C(N)=O)ccc2n1CCC(CCn1c(=NC(=O)c2cc(C)nn2CC)n(C)c2cc(C(N)=O)ccc21)OCC(=O)N1CCc2cc(OC)ccc2C1 (stereo not drawn) [A9, 1-(5-{5-Carbamoyl-2-[(1-ethyl-3-methyl-5-pyrazolyl)carbonylimino]-3-methyl-2,3-dihydro-1H-1,3-benzimidazol-1-yl}-3-[2-(6-methoxy-1,2,3,4-tetrahydro-2-isoquinolyl)-2-oxoethoxy]pentyl)-2-[(1-ethyl-3-methyl-5-pyrazolyl)carbonylimino]-3-methyl-2,3-dihydro-1H-1 ,3-benzimidazole-5-carboxamide]",reduced LC3B lipidation; also recorded: decrease in LC3B lipidation,reduced intensity; also recorded: decrease in P-STING,,,
reduced P-TBK1 intensity,-10 - 20 U/mL,inhibits secretion,inhibits secretion,,,-10 to 20,"CCn1nc(C)cc1C(=O)N=c1n(C)c2cc(C(N)=O)ccc2n1CCC(CCn1c(=NC(=O)c2cc(C)nn2CC)n(C)c2cc(C(N)=O)ccc21)OCC(=O)N1CCC[C@H]1c1cccc(OC)c1 (stereo partly drawn) [A11, 1-(3-{2-[(S)-2-(3-Methoxyphenyl)-1-pyrrolidinyl]-2-oxoethoxy}-5-{5-carbamoyl-2-[(1-ethyl-3-methyl-5-pyrazolyl)carbonylimino]-3-methyl-2,3-dihydro-1H-1,3-benzimidazol-1-yl}pentyl)-2-[(1-ethyl-3-methyl-5-pyrazolyl)carbonylimino]-3-methyl-2,3-dihydro-1H-1,3-benzimidazole-5-carboxamide]",reduced LC3B lipidation,reduced intensity; also recorded: decrease in P-STING,"lower; also recorded: inhibited STING, IRF3 and TBK1 phosphorylation and activation","do not induce STING, IRF3 or TBK1 phosphorylation and activation alone","lower; also recorded: inhibited STING, IRF3 and TBK1 phosphorylation and activation"
